Results: patent publication US10143199B2, “Method of killing bedbug eggs” (Ecolab USA Inc., priority 2012, dated 2018)

Experiments:
Type in all cases: in vivo
[1] = tested on: Bedbug eggs; experiment: Treating bedbug eggs on a substrate with test composition at pH 9 to 10 (Example 1); settings: 1% solution, pH of 9 to 10, 100° F., 5 minutes exposure
Protocol: Bedbug eggs on a substrate were exposed to a 100° F. test composition for 5 minutes and then examined. […] Water by itself killed about 20% of the bedbug eggs. And, complete kill was accomplished by a commercial bedbug killer sold under the tradename Transport.

[2] = tested on: Bedbug Eggs and Nymphs; experiment: Treating bedbug eggs with anionic compounds near neutral pH (Example 2), kill of eggs and nymphs; settings: pH 7-8, 100° F., 5 min
Protocol: (§1) Aqueous test compositions of each of several anionic compounds prepared and adjusted to near neutral pH of about 7-8. Bedbug eggs were then contacted with a 100° F. test composition for 5 min.

[3] = tested on: Bedbug eggs; experiment: Treating bedbug eggs with anionic compounds near neutral pH (Example 2), kill of eggs; settings: pH 7-8, 100° F., 5 min
Protocol: as §1

CCCCCCCCCCCCOS(=O)(=O)[O-].[Na+] [sodium lauryl sulfate]
kill of bedbug eggs [1]: did not kill | % Kill of Bedbug Eggs and Nymphs ([2]; 0.1% aqueous test composition): 95% | % Kill of Bedbug Eggs and Nymphs ([2]; 1% aqueous test composition): 100% | % Kill of Bedbug Eggs ([3]; 0.1% aqueous test composition): 70% | % Kill of Bedbug Eggs ([3]; 1% aqueous test composition): 75%

CCCCCCCCS(=O)(=O)[O-].[Na+] [sodium octyl sulfonate]
% Kill of Bedbug Eggs and Nymphs ([2]; 1% aqueous test composition): 95% | % Kill of Bedbug Eggs ([3]; 1% aqueous test composition): 90%

sodium dodecylbenzene sulfonate
% Kill of Bedbug Eggs and Nymphs ([2]; 1% aqueous test composition): 30% | % Kill of Bedbug Eggs ([3]; 1% aqueous test composition): 30%

sodium lauryl ether sulfate
% Kill of Bedbug Eggs and Nymphs ([2]; 1% aqueous test composition): 35% | % Kill of Bedbug Eggs ([3]; 1% aqueous test composition): 35%
